Measurements from patent US20230339915A1 (Vertex Pharmaceuticals Incorporated, priority 2020, published 2023).

Legend:
[1] = target: NL20 human bronchial epithelial cells expressing human Z-AAT (Homo sapiens (Human), UniProt P01009, E366K); experiment: AAT Function Assay (MSD Assay NL20-SI Cell Line); assay type: cell-based; conditions: functionally active AAT (AAT-hNE complex, MSD) in supernatant of NL20 cells expressing human Z-AAT; read-out: NL20 Functional EC50
Method: A. AAT Function Assay (MSD Assay NL20-SI Cell Line)
Alpha-1 antitrypsin (AAT) is a SERpIN (serine protease inhibitor) that inactivates enzymes by binding to them covalently. This assay measured the amount of functionally active AAT in a sample in the presence of the disclosed Compounds 1-227 by determining the ability of AAT to form an irreversible complex with human neutrophil Elastase (hNE). In practice, the sample (cell supernatant, blood sample, or other) was incubated with excess hNE to allow AAT-Elastase complex to be formed with all functional AAT in the sample. This complex was then captured to a microplate coated with an anti-AAT antibody. The complex captured to the plate was detected with a labeled anti-Elastase antibody and quantitated using a set of AAT standards spanning the concentration range present in the sample. Meso Scale Discovery (MSD) plate reader, Sulfo-tag labeling, and microplates were used to provide high sensitivity and wide dynamic range.
Instrument(S): • Meso Sector S600 • Bravo • Washer dispenser • Multidrop Combi
Day 1 Cell Culture • 1. Harvest NL20 human bronchial epithelial cells expressing human Z-AAT in OptiMEM™ containing Pen/Strep (P/S) • 2. Seed at 16,000 cells/well in 30 μL (384 well plate) • 3. Centrifuge plates briefly up to speed (1200 rpm) and place into 37° C. incubator overnight
Day 2: Compound Addition and Coating Plates with Capture Antibody
Compound Addition: • 1. Dispense 40 μL of OptiMEM™ (P/S) with doxycycline (1:1000 stock=0.1 μM final) to each well of the compound plate using a multidrop Combi in hood • 2. Remove cell plate from incubator, flip/blot and take immediately to Bravo to transfer compounds • 3. Return plates to incubator overnight
Coat MSD Plates • 1. Dilute capture antibody (Polyclonal Goat anti-AAT) to 5 μg/mL (1:200) in PBS (no BSA). • 2. Dispense 25 μL of diluted capture antibody into all wells of MSD 384-well High Bind plate using the Multidrop equipped with a standard cassette. • 3. Incubate overnight at 4° C.
Prepare Blocker A (BSA) Solutions • 1. Prepare solution of 5% MSD Blocker A (BSA) following the manufacturer's instructions. • 2. Further dilute the 5% MSD Blocker A in PBS to 1% (Blocker A) as needed.
Block Plates • 1. Wash plate 1× with 50 μL Wash buffer (PBS+0.5% Tween 20), and adds 35 μL 5% Block A buffer to block non-specific binding on washer dispenser • 2. Rotate plates on shaker for 1 hour at 600 rpm
Prepare M-AA T Standards • 1. Dilute M-AAT stock to 1.6 μg/mL in 1% BSA Blocker A (Stock in −70° C.); then prepare 12×1:2 serial dilutions in 1% Blocker A • 2. The top starting final concentration on MSD plate is 320 ng/mL. These dilutions correspond to a final concentration of 320, 160, 80, 40, 20, 10, 5, 2.5, 1.25, 0.625, 0.312, 0.156 ng/mL.
Dilution Plate • 1. Add 80 μL of 1% Assay buffer to all wells except columns 1/24 (standards) with Multidrop Combi • 2. Add diluted standards to columns 1 and 24 • 3. Centrifuge dilution plates 1200 rpm briefly
Cell Plate • 1. Aspirate columns which will have the standards from the cell plates in the hood using 16-pin aspirator
Prepare Human Neutrophil Elastase (hNE) • 1. Prepare 1 μg/mL Human Neutrophil Elastase by diluting in 1% Blocker A. • a. Small 100 μg vial—add 1 mL PBS (100 μg/mL) • i. This can then be diluted 1:100 in 1% Assay Buffer for a final 1 μg/mL concentration
MSD—add hNE (20 μL/well) • 1. After the MSD plate has blocked for at least 1 hour, wash plate 1× with 50 μL Wash buffer (PBS+0.5% Tween 20) and then add 20 μL hNE to each well
Bravo—Cell Plate—Dilution Plate—MSD Plate
Using the Bravo aspirate 10 μL from the cell plate, transfer to the dilution plate (9-fold dilution) • 1. Mix 25 μL 3×, then aspirate 5 μL, transfer to MSD plate (5-fold dilution) • 2. Mix 10 μL 3×. Total dilution is 45 fold. • 3. Shake plates at 600 rpm for 1.5 hours
Add Functional Detection hNE Antibody • 1. Wash plate 1× with wash buffer • 2. […]

[2] = target: purified Z-AAT protein from human plasma (Homo sapiens (Human), UniProt P01009, E366K); experiment: Biochemical Assay (Z-AAT Elastase Activity Assay); conditions: purified Z-AAT pre-incubated with compound 1 hour, then human neutrophil elastase and fluorescent substrate
Excerpt: B. Biochemical Assay (Z-AAT Elastase Activity Assay)
This assay measured the modulation of Compounds 1-227 on Z-AAT SERpIN activity using purified Z-AAT protein and purified human neutrophil elastase (hNE). Normally, when active monomeric Z-AAT encounters a protease such as trypsin or elastase, it forms a 1:1 covalent “suicide” complex in which both the AAT and protease are irreversibly inactivated. However, compounds binding to Z-AAT can lead to a decrease in SERpIN activity. In such cases, when a protease encounters compound-bound Z-AAT, the protease cleaves and inactivates Z-AAT without itself being inactivated.
Reagents • PBS buffer (media prep)+0.01% BRIJ35 detergent (Calbiochem catalog #203728) Opti-MEM media (Fisher 11058-021) • Human neutrophil elastase (hNE, Athens Research #16-14-051200) • 3.4 μM stock (0.1 mg/mL) prepared in 50 mM Na Acetate, pH 5.5, 150 mM NaCl, stored at −80° C. • Elastase substrate V (ES V, fluorescent peptide substrate MeOSuc-Ala-Ala-Pro-Val-AMC, Calbiochem catalog #324740) • 20 mM stock in DMSO, stored at −20° C. • Purified Z-AAT protein from human plasma; • 12.9 μM (0.67 mg/mL) Z-AAT Vertex Cambridge Sample 4942, from patient • #061-SSN, stored at −80 C
Plates • Corning 4511 (384 well black low volume)
Instruments • PerkinElmer® EnVision™
Pre-Incubation of Z-AAT with Compounds • 1. 7.5 μL of Z-AAT (20 nM) was incubated with compounds 1-227 in a GCA plate for 1 hour at room temperature
Addition of hNE • 1. 7.5 ul of HNE solution (3 nM in PBS+0.01% BRIJ35) added into GCA plate • 2. Incubate plate for 30 minutes to allow Z-AAT/HNE suicide complex formation.
Addition of Substrate and Read Plate on PE Envision • 1. 7.5 μL of substrate (300 μM solution of elastase substrate (ES V) in PBS+0.01% BRIJ35) dispensed per well into GCA plate • 2. Immediately read on Envision.

purified Z-AAT protein from human plasma, sequence (P01009 25-418 E366K limits assumed): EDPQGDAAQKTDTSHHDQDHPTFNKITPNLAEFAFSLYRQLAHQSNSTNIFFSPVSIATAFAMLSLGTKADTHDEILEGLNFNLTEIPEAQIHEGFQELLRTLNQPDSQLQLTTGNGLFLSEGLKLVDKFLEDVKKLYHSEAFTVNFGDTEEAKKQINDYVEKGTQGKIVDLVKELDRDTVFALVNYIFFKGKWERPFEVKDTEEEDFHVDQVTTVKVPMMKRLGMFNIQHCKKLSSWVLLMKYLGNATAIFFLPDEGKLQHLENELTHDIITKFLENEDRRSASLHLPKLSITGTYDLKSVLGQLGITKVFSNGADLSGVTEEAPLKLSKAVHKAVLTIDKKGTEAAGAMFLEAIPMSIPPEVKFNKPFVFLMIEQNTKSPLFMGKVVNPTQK
NL20 human bronchial epithelial cells expressing human Z-AAT, sequence (P01009 25-418 E366K limits assumed): as above

Structure (SMILES) | EC50 [1] | IC50 [2]
O=C(O)[C@]1(C(F)(F)F)C[C@@H](c2c(C3CCOCC3)n(-c3ccc(F)c(Cl)c3)c3ccc(O)cc32)C1 [Compound 37] | 500 to 2000 nM | > 5000 nM
O=C(O)[C@]1(C(F)(F)F)C[C@H](c2c(C3CCOCC3)n(-c3ccc(F)c(Cl)c3)c3ccc(O)cc32)C1 [Compound 38] | > 2000 nM | > 30000 nM
C[C@]1(C(=O)O)C[C@H](c2c(C3CCOCC3)n(-c3ccc(F)c(F)c3)c3ccc(O)cc32)C1 [Compound 39] | > 2000 nM | > 30000 nM
C[C@]1(C(=O)O)C[C@@H](c2c(C3CCOCC3)n(-c3ccc(F)c(F)c3)c3ccc(O)cc32)C1 [Compound 40] | > 2000 nM | > 30000 nM
O=C(O)[C@H]1CC2(C1)C[C@H](c1c(C3CCOCC3)n(-c3ccc(F)c(F)c3)c3ccc(O)cc31)C2 (some centres unmarked) [Compound 41] | 500 to 2000 nM | > 30000 nM
O=C(O)[C@H]1CC2(C1)C[C@H](c1c(C3CCOCC3)n(-c3ccc(F)c(F)c3)c3ccc(O)cc31)C2 (some centres unmarked) [Compound 42] | 500 to 2000 nM | > 30000 nM
Cc1cc(-n2c(C3CCS(=O)(=O)CC3)c([C@H]3C[C@@](C(=O)O)(C(F)(F)F)C3)c3cc(O)ccc32)ccc1F [Compound 43] | > 2000 nM | > 30000 nM
Cc1cc(-n2c(C3CCS(=O)(=O)CC3)c(C[C@H]3CC[C@H](C(=O)O)CC3)c3cc(O)ccc32)ccc1F [Compound 44] | > 2000 nM | > 30000 nM
O=C(O)[C@H]1C[C@H](c2c(C3CCOCC3)n(-c3ccc(F)cc3)c3ccc(O)cc32)C1 [Compound 45] | > 2000 nM | > 30000 nM
O=C(O)[C@H]1C[C@@H](c2c(C3CCOCC3)n(-c3ccc(F)cc3)c3ccc(O)cc32)C1 [Compound 46] | > 2000 nM | > 30000 nM
Cc1cc(-n2c(C3CCS(=O)(=O)CC3)c(C3CC4(CC(C(=O)O)C4)C3)c3cc(O)ccc32)ccc1F (centres unmarked) [Compound 47] | > 2000 nM | > 30000 nM
C[C@]1(C(=O)O)C[C@H](c2c(C3CCOCC3)n(-c3ccc(F)cc3)c3ccc(O)cc32)C1 [Compound 48] | > 2000 nM | > 30000 nM
C[C@]1(C(=O)O)C[C@@H](c2c(C3CCOCC3)n(-c3ccc(F)cc3)c3ccc(O)cc32)C1 [Compound 49] | > 2000 nM | > 30000 nM
O=C(O)[C@H]1CC2(C1)C[C@H](c1c(C3CCOCC3)n(-c3ccc(F)cc3)c3ccc(O)cc31)C2 (some centres unmarked) [Compound 50] | 500 to 2000 nM | > 30000 nM
O=C(O)[C@H]1CC2(C1)C[C@H](c1c(C3CCOCC3)n(-c3ccc(F)cc3)c3ccc(O)cc31)C2 (some centres unmarked) [Compound 51] | 500 to 2000 nM | > 30000 nM
C[C@]1(C(=O)O)C[C@@H](c2c(C3CCOCC3)n(-c3ccccc3)c3ccc(O)cc32)C1 [Compound 52] | > 2000 nM | > 30000 nM
O=C(O)[C@]1(C(F)(F)F)C[C@@H](c2c(C3CCOCC3)n(-c3ccc(F)c(F)c3)c3ccc(O)cc32)C1 [Compound 53] | > 2000 nM | > 30000 nM
O=C(O)C1CC2(C1)CC(c1c(C3CCOCC3)n(-c3ccccc3)c3ccc(O)cc13)C2 (centres unmarked) [Compound 54] | > 2000 nM | > 30000 nM
Cc1cc(-n2c(C3CCOCC3)c([C@H]3CC[C@@H](C(=O)O)CC3)c3cc(O)ccc32)ccc1F [Compound 55] | > 2000 nM | > 30000 nM
Cc1cc(-n2c(C3CCOCC3)c([C@H]3CC[C@H](C(=O)O)CC3)c3cc(O)ccc32)ccc1F [Compound 56] | 500 to 2000 nM | > 30000 nM
CC(C)c1c([C@H]2CC3(C[C@H](C(=O)O)C3)C2)c2cc(O)ccc2n1-c1ccc(F)c(F)c1 (some centres unmarked) [Compound 57] | < 500 nM | < 2000 nM
CC(C)c1c([C@H]2CC3(C[C@H](C(=O)O)C3)C2)c2cc(O)ccc2n1-c1ccc(F)c(F)c1 (some centres unmarked) [Compound 58] | 500 to 2000 nM | 2000 to 5000 nM
Cc1cc(-n2c(C(C)C)c(CCC(F)(F)C(=O)O)c3cc(O)ccc32)ccc1F [Compound 59] | > 2000 nM | > 5000 nM
Cc1cc(-n2c(C(C)C)c([C@H]3C[C@@](C(=O)O)(C(F)(F)F)C3)c3cc(O)ccc32)ccc1F [Compound 60] | < 500 nM | > 5000 nM
Cc1cc(-n2c(C(C)C)c([C@H]3C[C@](C(=O)O)(C(F)(F)F)C3)c3cc(O)ccc32)ccc1F [Compound 61] | 500 to 2000 nM | > 5000 nM
Cc1cc(-n2c(C(C)C)c(CCC(C)(C)C(=O)O)c3cc(O)ccc32)ccc1F [Compound 62] | 500 to 2000 nM | > 30000 nM
Cc1cc(-n2c(C(C)C)c([C@H]3C[C@@H](CC(=O)O)C3)c3cc(O)ccc32)ccc1F [Compound 63] | 500 to 2000 nM | > 5000 nM
Cc1cc(-n2c(C(C)C)c(C3CCOC(C(=O)O)C3)c3cc(O)ccc32)ccc1F (centres unmarked) [Compound 64] | > 2000 nM | > 30000 nM
